From article PMC7747594, “Protease-activated receptor-2 ligands reveal orthosteric and allosteric mechanisms of receptor inhibition” (Communications Biology, 2020)

Tests used:
hPAR2 = molecular target: T1, hPAR2 (Homo sapiens, UniProt P55085); assay: Ca^2+ flux assay, inhibition of tryptase activation in 1321N1-hPAR2 cells; assay type: cell-based; details: 1 µM Vorapaxar
T1 sequence (P55085 26-397): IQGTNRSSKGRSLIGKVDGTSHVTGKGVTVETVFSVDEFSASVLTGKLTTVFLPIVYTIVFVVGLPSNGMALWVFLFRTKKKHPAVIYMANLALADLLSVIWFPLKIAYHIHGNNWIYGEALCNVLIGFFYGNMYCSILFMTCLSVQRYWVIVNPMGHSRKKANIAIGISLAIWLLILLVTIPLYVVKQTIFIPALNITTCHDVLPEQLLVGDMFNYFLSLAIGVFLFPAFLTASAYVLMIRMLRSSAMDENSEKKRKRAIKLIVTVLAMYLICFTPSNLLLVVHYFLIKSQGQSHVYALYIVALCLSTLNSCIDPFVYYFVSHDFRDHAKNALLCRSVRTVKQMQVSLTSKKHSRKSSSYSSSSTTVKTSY
Experimental: For evaluation of Ca^2+ mobilisation, 1321N1-hPAR2 cells were seeded in 384-well CellBIND plates (Corning) at 4000 cells per well in DMEM containing 10% FBS and incubated for 18–24 hours at 37 °C, 5% CO2 and 95% humidity. Cells were loaded with Fluo-8 NW calcium dye (AAT Bioquest) for 30 min at 37 °C before compounds in Hank’s balanced salt solution (HBSS, ThermoFisher Scientific) with 20 mM HEPES (ThermoFisher Scientific), 0.1% bovine serum albumin (BSA, Sigma) and 0.5% DMSO were added and simultaneously evaluated for changes in intracellular [Ca^2+] using FLIPR TETRA (Molecular Devices) to detect agonism. For each concentration, the difference between the maximum peak Ca^2+ response and baseline response is reported. […] Inhibition of Ca^2+ release on rat PAR2 was measured in the same way using 10 000 KNRK cells per well seeded in poly-D-lysine coated 384-well plates (Greiner), 30 min preincubation with the compound before activation of PAR2 with EC80 of SLIGRL-NH2 (120 µM) and real-time detection of Ca^2+. […] Intracellular [Ca^2+] flux was measured using FLIPR TETRA (Molecular Devices) and the difference between the maximum peak Ca^2+ response and baseline response is reported.

macrophages = assay: Immunohistochemistry, ED1-positive macrophages in rat paw; assay type: in vivo; details: 30 min after agonist administration
Experimental: Rat paw tissues were collected, fixed in 10% neutral-buffered formalin (Sigma-Aldrich) for 2 h at 4 °C, transferred into falcon tubes containing 25% sucrose in PBS and left overnight at 4 °C. Tissues were then embedded with Optimal Cutting Temperature compound (OCT, Sakura Finetek, USA) and stored at −80 °C before making cryo-sections for histological analysis. Frozen sections (5 µm) were made using a cryostat-microtome (Leica Biosystems, Germany). For mast cell staining, slides were briefly washed with distilled water before staining with 0.1% toluidine blue (Sigma-Aldrich, pH 2.5) for 3 min. Slides were then dehydrated and mounted in DPX mountant (Sigma-Aldrich, USA). For immunohistochemistry, slides were briefly rinsed with PBS to remove OCT. Except for tryptase staining, antigen retrieval was performed by incubating slides in citrate buffer (0.01 M, pH 6) at 95 °C for 20 min. They were then cooled down briefly and incubated with blocking medium (PBS, 0.1% Triton X-100, 10% horse serum) for 1 h at room temperature in a humidity chamber. Samples were incubated with primary antibody medium (PBS, 0.1% Triton X-100, 4% horse serum; 1:100 primary antibody including – histamine, neutrophil elastase or ED1 antibodies) overnight at 4 °C. […] Tryptase-, neutrophil elastase- and ED1-positive cells were quantified using FIJI/ImageJ 1.42q software, USA.

| SMILES | inhibition of tryptase-induced Ca^2+ response (hPAR2) | number of ED1 +ve cells in rat paw tissue compared to sham (macrophages) |
| --- | --- | --- |
| C[C@@H](C1CCCCC1)n1c(-c2cc3c(cc2Br)OCO3)nc2cc(C(=O)Nc3ccc(C#N)cc3)ccc21 [AZ3451] | only partial inhibition at low | no significant difference |
| C[C@@H](C1CCCCC1)n1c(-c2cc3c(cc2Br)OCO3)nc2cc(C(=O)Nc3ccncc3)ccc21 [AZ2623] | only partial inhibition at low |  |
| CCCc1cc(F)ccc1C(O)c1ncc[nH]1 (stereo not shown) [AZ8838] |  | no significant difference |
